Measurements taken from US12441736B2, “KIF18A inhibitors” (AMGEN INC., priority 2018, dated 2025).

Biological target: T1, Recombinant human KIF18A (1-467 His-tagged) protein (Homo sapiens, UniProt Q8NI77)
T1 construct: Recombinant human KIF18A (1-467 His-tagged) protein; His; made in house
Test: KIF18A Enzyme Assay: microtubule-stimulated ATPase activity (ADP-Glo)
Assay type: biochemical
Details: 30 nM KIF18A, 30 μg/mL pig microtubules, 75 μM ATP, ADP-Glo luminescence
Excerpt: KIF18A Enzyme Assay: Microtubule-stimulated ATPase activity assay is used to measure KIF18A enzyme activity after treatment with compound. Compounds were 2-fold serially diluted in DMSO (Sigma Inc) over 22-point concentration range. Recombinant human KIF18A (1-467 His-tagged) protein was expressed using a baculovirus system and purified by affinity chromatography by Amgen Inc. Concentrations of KIF18A protein, microtubules (MT), and ATP in the reaction were optimized for standardized homogenous enzyme assay using ADP-Glo™ Kinase/ATPase Assay Kit (Promega Inc). The assay measures ADP formed from the ATPase reaction. Prepare reaction buffer [(15 mM Tris, pH 7.5 (Teknova Inc), 10 mM MgCl2 (IT Baker Inc), 0.01% Pluronic F-68 (Life Technologies Inc), 1 μM Taxol (Cytoskeleton Inc), and 30 μg/mL pig microtubules (Cytoskeleton Inc)]. Add compound and KIF18A protein (30 nM) to prepared reaction buffer and incubated for 15 minutes at room temperature, next add ATP (at Kin, 75 μM) to the reaction mixture and incubated for an additional 15 minutes at room temperature. Mix 5 μl of ADP-Glo™ Reagent and 2.5 μl of the reaction mixture and incubate for 40 minutes at room temperature. Add 10 μl ADP-Glo™ Detection Reagent and incubate for 40 minutes at room temperature. Read luminescence using EnVision microplate reader with ultra-luminescence module (Perkin Elmer Inc). Concentration-response curve-fitting and IC50 determination was performed using Genedata Screener Software (Standard 15.0.1, Genedata Inc) with a four-parameter logistic regression fit model.
Table A provides data for compounds exemplified in the present application and priority document thereof, as representative compounds of the present invention, as follows: chemical name (as named by either ACD software or ChemDraw (Professional 15.0)) and biological data (IC50 in μM). Ex. # refers to Example No.

T1 sequence (Q8NI77 1-467): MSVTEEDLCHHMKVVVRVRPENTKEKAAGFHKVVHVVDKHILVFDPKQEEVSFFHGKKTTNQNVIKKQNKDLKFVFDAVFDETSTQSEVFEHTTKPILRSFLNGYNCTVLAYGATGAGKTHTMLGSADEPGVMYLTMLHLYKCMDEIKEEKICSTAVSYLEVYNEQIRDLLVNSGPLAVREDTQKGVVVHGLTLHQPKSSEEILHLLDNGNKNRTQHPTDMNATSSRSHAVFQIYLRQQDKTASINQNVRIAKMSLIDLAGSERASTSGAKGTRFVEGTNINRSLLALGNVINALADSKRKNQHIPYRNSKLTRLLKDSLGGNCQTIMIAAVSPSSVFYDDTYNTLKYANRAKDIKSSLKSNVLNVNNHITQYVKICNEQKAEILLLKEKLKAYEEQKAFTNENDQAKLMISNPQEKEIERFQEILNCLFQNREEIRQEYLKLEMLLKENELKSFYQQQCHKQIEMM
T1 sequence (P02550 whole entry partner): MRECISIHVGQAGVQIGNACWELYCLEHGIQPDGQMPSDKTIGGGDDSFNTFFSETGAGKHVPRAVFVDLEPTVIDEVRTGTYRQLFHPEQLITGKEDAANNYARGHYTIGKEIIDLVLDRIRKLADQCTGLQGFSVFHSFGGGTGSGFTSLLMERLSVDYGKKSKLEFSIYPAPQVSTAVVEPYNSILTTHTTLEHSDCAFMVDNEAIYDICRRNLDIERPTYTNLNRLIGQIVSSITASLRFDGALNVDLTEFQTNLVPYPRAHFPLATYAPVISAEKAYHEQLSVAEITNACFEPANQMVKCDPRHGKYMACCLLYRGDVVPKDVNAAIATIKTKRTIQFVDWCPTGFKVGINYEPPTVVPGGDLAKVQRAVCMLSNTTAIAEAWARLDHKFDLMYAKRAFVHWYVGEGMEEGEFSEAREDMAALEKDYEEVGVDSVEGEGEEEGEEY
T1 sequence (P02554 whole entry partner): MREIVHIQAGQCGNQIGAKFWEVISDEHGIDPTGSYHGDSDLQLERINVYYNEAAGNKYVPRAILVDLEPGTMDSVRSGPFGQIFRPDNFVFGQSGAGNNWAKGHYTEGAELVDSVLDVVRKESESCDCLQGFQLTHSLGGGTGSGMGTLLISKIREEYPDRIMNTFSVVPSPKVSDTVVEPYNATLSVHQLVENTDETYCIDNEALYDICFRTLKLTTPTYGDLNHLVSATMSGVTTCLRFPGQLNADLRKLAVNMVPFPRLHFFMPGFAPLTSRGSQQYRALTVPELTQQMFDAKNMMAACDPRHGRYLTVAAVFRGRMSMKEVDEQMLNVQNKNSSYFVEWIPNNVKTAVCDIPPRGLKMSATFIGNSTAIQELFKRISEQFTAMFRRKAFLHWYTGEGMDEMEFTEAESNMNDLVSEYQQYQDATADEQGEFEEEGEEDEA

Row | IC50 | Structure (SMILES)
1 | 0.11 µM | C[C@H]1CN(c2cccc(NC(=O)c3ncc(NC(C)(C)CO)nc3N3CCC4(CC3)CC4)n2)C[C@H](C)O1 (racemic) [Example 111, N-(6-((2S,6S)-2,6-dimethylmorpholino)pyridin-2-yl)-5-((1-hydroxy-2-methylpropan-2-yl)amino)-3-(6-azaspiro[2.5]octan-6-yl)pyrazine-2-carboxamide]
2 | 0.182 µM | CC(C)(CO)Nc1cnc(C(=O)Nc2cccc(N3C[C@@H]4C[C@H]3CO4)n2)c(N2CCC3(CC2)CC3)n1 (racemic) [Example 112, N-(6-((1S,4S)-2-oxa-5-azabicyclo[2.2.1]heptan-5-yl)pyridin-2-yl)-5-((1-hydroxy-2-methylpropan-2-yl)amino)-3-(6-azaspiro[2.5]octan-6-yl)pyrazine-2-carboxamide]
3 | 0.0904 µM | CC(C)(C)NS(=O)(=O)c1cccc(NC(=O)c2ccc(C(C)(O)C(F)(F)F)nc2N2CCC3(CC2)CC3)n1 (racemic) [Example 143, N-(6-(N-(tert-butyl)sulfamoyl)pyridin-2-yl)-2-(6-azaspiro[2.5]octan-6-yl)-6-(1,1,1-trifluoro-2-hydroxypropan-2-yl)nicotinamide]
4 | 0.0997 µM | C[C@H]1CN(c2cccc(NC(=O)c3ccc(NC(C)(C)CO)nc3N3CCC4(CC3)CC4)n2)C[C@H](C)O1 (racemic) [Example 150, N-(6-((2S,6S)-2,6-dimethylmorpholino)pyridin-2-yl)-6-((1-hydroxy-2-methylpropan-2-yl)amino)-2-(6-azaspiro[2.5]octan-6-yl)nicotinamide]
5 | 0.0905 µM | CC(C)(CO)Nc1ccc(C(=O)Nc2cccc(N3C[C@@H]4C[C@H]3CO4)n2)c(N2CCC3(CC2)CC3)n1 (racemic) [Example 151, N-(6-((1S,4S)-2-oxa-5-azabicyclo[2.2.1]heptan-5-yl)pyridin-2-yl)-6-((1-hydroxy-2-methylpropan-2-yl)amino)-2-(6-azaspiro[2.5]octan-6-yl)nicotinamide]
6 | 0.286 µM | CC(C)(C)NS(=O)(=O)c1cccc(NC(=O)c2ccc(C3(C(F)(F)F)COC(C)(C)O3)nc2N2CCC3(CC2)CC3)n1 (racemic) [Example 171, N-(6-(N-(tert-butyl)sulfamoyl)pyridin-2-yl)-6-(2,2-dimethyl-4-(trifluoromethyl)-1,3-dioxolan-4-yl)-2-(6-azaspiro[2.5]octan-6-yl)nicotinamide]
7 | 0.12 µM | CC(C)(C)NS(=O)(=O)c1cccc(NC(=O)c2ccc(C(O)(CO)C(F)(F)F)nc2N2CCC3(CC2)CC3)n1 (racemic) [Example 172, N-(6-(N-(tert-butyl)sulfamoyl)pyridin-2-yl)-2-(6-azaspiro[2.5]octan-6-yl)-6-(1,1,1-trifluoro-2,3-dihydroxypropan-2-yl)nicotinamide]
8 | 0.252 µM | C[C@@H]1CO[C@@H](C)CN1c1cccc(NC(=O)c2ccc(NC(C)(C)CO)nc2N2CCC3(CC2)CC3)n1 (racemic) [Example 187, N-(6-((2S,5R)-2,5-dimethylmorpholino)pyridin-2-yl)-6-((1-hydroxy-2-methylpropan-2-yl)amino)-2-(6-azaspiro[2.5]octan-6-yl)nicotinamide]
9 | 0.243 µM | C[C@H]1CN(c2cccc(NC(=O)c3ccc(NC(C)(C)CO)nc3N3CCC4(CC3)CC4)n2)[C@@H](C)CO1 (racemic) [Example 199, N-(6-((2S,5S)-2,5-dimethylmorpholino)pyridin-2-yl)-6-((1-hydroxy-2-methylpropan-2-yl)amino)-2-(6-azaspiro[2.5]octan-6-yl)nicotinamide]
10 | 0.088 µM | CC(O)(c1ccc(C(=O)Nc2cccc(N3CCOCC3)n2)c(N2CCC3(CC2)CC3)n1)C(F)(F)F (single isomer, unassigned) [Example 141]
11 | 0.0534 µM | CC(C)(C)NS(=O)(=O)c1cccc(NC(=O)c2ccc([C@@](C)(O)C(F)(F)F)nc2N2CCC3(CC2)CC3)n1 (single isomer, unassigned) [Example 153]
12 | 0.105 µM | CC(C)(C)NS(=O)(=O)c1cccc(NC(=O)c2ccc([C@](C)(O)C(F)(F)F)nc2N2CCC3(CC2)CC3)n1 (single isomer, unassigned) [Example 154]
